Data reported in US20260193268A1, “TRICYCLIC PI3Ka INHIBITOR, PREPARATION METHOD THEREFOR, AND PHARMACEUTICAL USE THEREOF” (WIGEN BIOMEDICINE TECHNOLOGY (SHANGHAI) CO., LTD., priority 2022, published 2026).
pIC50: −log10 of the molar value. Like-named read-outs stand apart in the source and are kept apart here.

What was measured:
PI3Kβ = PI3Kβ (Homo sapiens, UniProt P42338); experiment: ADP-Glo kinase assay, in vitro inhibition of PI3Kβ kinase activity; type: biochemical; details: 25 μM ATP, PIP2 50 μg/mL, room temperature 1 h, read-out: Inhibitory activity against PI3K kinases, PI3Kβ (IC50)
Sequence of PI3Kβ (P42338 whole entry, species assumed): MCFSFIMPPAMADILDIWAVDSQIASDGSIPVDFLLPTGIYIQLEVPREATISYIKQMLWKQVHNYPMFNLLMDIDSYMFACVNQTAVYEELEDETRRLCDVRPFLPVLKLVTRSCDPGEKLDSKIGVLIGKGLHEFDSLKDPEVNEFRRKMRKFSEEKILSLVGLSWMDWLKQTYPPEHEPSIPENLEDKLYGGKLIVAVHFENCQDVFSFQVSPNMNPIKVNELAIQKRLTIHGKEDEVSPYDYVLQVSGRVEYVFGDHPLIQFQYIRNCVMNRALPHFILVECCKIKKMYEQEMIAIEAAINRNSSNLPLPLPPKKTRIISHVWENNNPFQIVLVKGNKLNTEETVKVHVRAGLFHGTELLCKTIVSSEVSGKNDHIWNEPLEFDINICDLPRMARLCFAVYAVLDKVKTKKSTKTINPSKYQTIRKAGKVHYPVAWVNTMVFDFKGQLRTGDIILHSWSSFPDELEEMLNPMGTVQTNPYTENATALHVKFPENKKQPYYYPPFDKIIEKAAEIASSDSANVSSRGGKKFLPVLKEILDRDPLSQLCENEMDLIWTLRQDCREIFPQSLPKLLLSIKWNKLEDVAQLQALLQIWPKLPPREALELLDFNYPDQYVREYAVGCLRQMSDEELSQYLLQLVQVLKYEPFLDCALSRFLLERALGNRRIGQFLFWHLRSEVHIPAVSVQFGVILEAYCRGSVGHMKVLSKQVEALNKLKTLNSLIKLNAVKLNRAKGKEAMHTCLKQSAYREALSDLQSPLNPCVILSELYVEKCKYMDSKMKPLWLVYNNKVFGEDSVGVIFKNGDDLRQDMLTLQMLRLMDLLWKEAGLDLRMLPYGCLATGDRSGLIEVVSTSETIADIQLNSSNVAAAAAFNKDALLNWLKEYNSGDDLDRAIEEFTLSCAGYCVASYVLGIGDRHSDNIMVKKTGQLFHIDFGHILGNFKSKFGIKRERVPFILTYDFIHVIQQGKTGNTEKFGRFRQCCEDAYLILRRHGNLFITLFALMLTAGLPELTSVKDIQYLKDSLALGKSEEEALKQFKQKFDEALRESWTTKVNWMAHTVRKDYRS
Sequence of PI3Kβ (P27986 whole entry partner, species assumed): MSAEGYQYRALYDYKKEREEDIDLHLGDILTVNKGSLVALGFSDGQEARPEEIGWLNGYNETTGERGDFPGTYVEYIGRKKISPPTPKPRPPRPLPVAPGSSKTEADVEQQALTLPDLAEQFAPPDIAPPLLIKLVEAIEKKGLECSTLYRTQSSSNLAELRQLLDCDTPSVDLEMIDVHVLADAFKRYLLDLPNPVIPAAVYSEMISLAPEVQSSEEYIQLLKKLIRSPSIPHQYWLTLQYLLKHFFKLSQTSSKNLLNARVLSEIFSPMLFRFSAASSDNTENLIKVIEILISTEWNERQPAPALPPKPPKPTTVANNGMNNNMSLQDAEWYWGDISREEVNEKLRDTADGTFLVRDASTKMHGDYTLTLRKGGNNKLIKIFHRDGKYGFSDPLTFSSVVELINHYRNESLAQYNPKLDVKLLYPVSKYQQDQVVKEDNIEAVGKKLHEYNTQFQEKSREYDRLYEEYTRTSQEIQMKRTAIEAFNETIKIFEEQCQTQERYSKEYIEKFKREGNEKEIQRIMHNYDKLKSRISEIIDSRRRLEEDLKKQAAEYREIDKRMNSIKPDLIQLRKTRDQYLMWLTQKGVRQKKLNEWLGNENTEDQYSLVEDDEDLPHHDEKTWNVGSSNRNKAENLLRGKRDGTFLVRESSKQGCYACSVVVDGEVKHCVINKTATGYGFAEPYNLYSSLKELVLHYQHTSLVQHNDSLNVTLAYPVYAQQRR
Description: (§1) Biological Example 1. Assay for In Vitro Inhibition of PI3Kα, PI3Kβ, PI3Kγ, and PI3Kδ Kinase Activity by Compounds of the Present Disclosure
(§2) The experiment was performed using the ADP-Glo Kinase Assay kit according to the instructions. The following buffer solution was prepared: 50 mM HEPES, pH 7.5, 3 mM MgCl2, 1 mM EGTA, 100 mM NaCl, 0.03% CHAPS, 2 mM DTT. Test compound samples were dissolved in DMSO, diluted 3-fold at a starting concentration, e.g., 10 μM, and added to the screening system. A DMSO control and a kinase-free control were set simultaneously. The optimal concentrations of PI3Kα, PI3Kδ, PI3Kβ, and PI3Kγ enzymes, substrate (PIP2), and ATP were prepared with buffer. The enzyme reaction system contained: buffer, 25 μM ATP, kinase substrate (PIP2, 50 μg/mL), and kinases PI3Kα (0.15 μg/mL), PI3Kδ (1.2 μg/mL), PI3Kβ (0.3 μg/mL), PI3Kγ (2.5 μg/mL), and the like. The reaction system was reacted at room temperature for 1 h. The reaction was terminated by adding a termination reagent (ADP-Glo reagent, 5 μL), and the ADP content in the system was detected using a detection reagent (Kinase Detection Reagent, 10 μL). Signal data were collected using an Envision instrument. The inhibition rate was calculated according to the following equation: % inhibition=(DMSO control signal value−sample signal value)/(DMSO control signal value−kinase-free control signal value). The IC50 values were obtained by fitting a curve using the equation: Y=Bottom+(Top−Bottom)/(1+(IC50/X)^HillSlope).

[1] = system: HCC1954 cells (with PI3Kα H1047R mutation); experiment: In vitro inhibition of HCC1954 cell proliferation (CellTiter-Lumi); type: cell-based; details: Homo sapiens, HCC1954, 144 h
Description: Assay for In Vitro Inhibition of HCC1954 Cell Proliferation by Compounds of the Present Disclosure
The growth of the cells was evaluated, and the IC50 for the inhibition of cell growth by the compounds was calculated.

PI3Kδ = PI3Kδ (Homo sapiens, UniProt O00329); experiment: ADP-Glo kinase assay, in vitro inhibition of PI3Kδ kinase activity; type: biochemical; details: 25 μM ATP, PIP2 50 μg/mL, room temperature 1 h, read-out: Inhibitory activity against PI3K kinases, PI3Kδ (IC50)
Sequence of PI3Kδ (O00329 whole entry, species assumed): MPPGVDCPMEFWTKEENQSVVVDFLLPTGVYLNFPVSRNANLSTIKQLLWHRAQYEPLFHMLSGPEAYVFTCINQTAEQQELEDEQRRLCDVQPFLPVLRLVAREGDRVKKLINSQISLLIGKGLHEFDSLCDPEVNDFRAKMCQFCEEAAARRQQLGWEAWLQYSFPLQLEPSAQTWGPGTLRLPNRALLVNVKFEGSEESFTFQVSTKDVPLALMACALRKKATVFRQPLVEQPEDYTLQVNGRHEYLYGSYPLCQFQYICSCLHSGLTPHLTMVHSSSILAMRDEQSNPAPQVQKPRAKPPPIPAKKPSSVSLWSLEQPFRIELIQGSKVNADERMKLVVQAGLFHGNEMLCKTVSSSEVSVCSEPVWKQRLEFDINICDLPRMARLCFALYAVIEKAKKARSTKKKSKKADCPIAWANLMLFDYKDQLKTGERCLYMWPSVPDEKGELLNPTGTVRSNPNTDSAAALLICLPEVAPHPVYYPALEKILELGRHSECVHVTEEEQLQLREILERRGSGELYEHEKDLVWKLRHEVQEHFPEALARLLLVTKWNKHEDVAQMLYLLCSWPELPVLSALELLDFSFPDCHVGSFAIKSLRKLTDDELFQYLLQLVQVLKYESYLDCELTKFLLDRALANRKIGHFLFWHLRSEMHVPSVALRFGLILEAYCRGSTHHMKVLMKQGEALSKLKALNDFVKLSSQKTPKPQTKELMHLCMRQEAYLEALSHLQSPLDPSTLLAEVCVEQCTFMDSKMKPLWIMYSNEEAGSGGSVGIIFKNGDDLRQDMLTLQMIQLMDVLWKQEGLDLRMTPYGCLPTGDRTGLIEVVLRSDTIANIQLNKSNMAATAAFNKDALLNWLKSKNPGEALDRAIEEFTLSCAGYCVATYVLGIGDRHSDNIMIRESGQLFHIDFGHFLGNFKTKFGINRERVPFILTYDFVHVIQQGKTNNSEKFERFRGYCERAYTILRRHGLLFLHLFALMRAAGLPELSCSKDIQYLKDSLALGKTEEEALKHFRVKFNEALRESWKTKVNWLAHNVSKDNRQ
Sequence of PI3Kδ (P27986 whole entry partner, species assumed): as the sequence (P27986 whole entry partner, species assumed) above
Description: as §1, §2

PI3Kγ = PI3Kγ (Homo sapiens, UniProt P48736); experiment: ADP-Glo kinase assay, in vitro inhibition of PI3Kγ kinase activity; type: biochemical; details: 25 μM ATP, PIP2 50 μg/mL, room temperature 1 h, read-out: Inhibitory activity against PI3K kinases, PI3Kγ (IC50)
Sequence of PI3Kγ (P48736 whole entry, species assumed): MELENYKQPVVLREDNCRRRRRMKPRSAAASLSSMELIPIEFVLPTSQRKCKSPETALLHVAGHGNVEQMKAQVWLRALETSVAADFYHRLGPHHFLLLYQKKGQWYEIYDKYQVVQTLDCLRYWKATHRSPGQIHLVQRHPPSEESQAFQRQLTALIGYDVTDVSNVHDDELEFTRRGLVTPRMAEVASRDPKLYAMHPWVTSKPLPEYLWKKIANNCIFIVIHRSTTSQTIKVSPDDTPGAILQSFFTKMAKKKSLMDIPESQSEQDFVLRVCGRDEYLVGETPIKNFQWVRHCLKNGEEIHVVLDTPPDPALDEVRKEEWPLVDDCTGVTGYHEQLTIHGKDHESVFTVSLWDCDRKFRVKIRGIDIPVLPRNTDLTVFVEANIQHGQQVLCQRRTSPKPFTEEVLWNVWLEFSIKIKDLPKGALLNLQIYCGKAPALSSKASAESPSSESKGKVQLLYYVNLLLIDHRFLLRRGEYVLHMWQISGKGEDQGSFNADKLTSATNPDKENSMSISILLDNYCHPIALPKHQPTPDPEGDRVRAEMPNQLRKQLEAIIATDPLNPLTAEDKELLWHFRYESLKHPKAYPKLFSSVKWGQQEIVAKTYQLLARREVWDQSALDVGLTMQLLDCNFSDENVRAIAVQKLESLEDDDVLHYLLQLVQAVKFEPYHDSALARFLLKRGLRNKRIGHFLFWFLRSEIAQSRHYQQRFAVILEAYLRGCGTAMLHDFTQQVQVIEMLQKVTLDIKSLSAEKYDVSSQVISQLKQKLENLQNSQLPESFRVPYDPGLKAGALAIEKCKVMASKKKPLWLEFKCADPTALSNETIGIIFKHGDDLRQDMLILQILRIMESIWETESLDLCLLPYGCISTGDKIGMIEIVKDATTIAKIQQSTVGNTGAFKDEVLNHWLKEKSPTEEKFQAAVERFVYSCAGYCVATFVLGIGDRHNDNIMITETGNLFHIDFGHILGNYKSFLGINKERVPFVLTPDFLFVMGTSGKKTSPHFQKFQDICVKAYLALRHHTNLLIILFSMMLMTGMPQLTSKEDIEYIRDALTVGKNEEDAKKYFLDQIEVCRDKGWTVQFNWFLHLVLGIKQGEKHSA
Description: as §1, §2

PI3Kα = PI3Kα (Homo sapiens, UniProt P42336); experiment: ADP-Glo kinase assay, in vitro inhibition of PI3Kα kinase activity; type: biochemical; details: 25 μM ATP, PIP2 50 μg/mL, room temperature 1 h, read-out: Inhibitory activity against PI3K kinases, PI3Kα (IC50)
Sequence of PI3Kα (P42336 whole entry): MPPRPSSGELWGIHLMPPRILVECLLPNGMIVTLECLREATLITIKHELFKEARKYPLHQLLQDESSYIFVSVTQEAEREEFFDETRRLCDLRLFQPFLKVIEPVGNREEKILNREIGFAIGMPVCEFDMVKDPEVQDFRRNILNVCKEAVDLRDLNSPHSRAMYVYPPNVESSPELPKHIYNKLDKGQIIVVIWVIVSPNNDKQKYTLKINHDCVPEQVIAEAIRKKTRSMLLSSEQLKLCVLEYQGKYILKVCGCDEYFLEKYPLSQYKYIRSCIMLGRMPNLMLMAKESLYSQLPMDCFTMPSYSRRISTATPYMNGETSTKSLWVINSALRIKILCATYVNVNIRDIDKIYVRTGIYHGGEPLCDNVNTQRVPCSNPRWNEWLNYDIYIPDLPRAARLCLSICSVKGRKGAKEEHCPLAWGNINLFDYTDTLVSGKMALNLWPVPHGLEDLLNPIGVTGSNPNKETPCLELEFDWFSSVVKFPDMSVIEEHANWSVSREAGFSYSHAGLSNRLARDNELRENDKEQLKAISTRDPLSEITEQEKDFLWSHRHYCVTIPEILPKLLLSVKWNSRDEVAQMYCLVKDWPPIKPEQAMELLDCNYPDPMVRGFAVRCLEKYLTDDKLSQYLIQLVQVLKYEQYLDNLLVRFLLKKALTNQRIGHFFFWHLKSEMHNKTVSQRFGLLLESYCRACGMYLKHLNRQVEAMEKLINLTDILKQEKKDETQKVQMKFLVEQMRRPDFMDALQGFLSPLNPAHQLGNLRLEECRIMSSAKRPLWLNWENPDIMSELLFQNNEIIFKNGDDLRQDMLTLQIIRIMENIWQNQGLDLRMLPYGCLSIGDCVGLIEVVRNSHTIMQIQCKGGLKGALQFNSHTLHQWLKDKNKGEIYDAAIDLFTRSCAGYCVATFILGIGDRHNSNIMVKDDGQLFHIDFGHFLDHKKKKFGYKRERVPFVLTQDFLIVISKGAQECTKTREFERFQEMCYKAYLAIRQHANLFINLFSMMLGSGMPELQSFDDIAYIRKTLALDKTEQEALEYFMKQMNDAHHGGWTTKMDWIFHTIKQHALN
Sequence of PI3Kα (P27986 whole entry partner): as the sequence (P27986 whole entry partner, species assumed) above
Description: as §1, §2

[2] = system: MCF-7 cells (with PI3Kα E545K mutation); experiment: In vitro inhibition of MCF-7 cell proliferation (CellTiter-Lumi); type: cell-based; details: Homo sapiens, MCF7, 144 h
Method in brief: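 MCF-7 (PI3Kα E545K) seeded at 2000 cells/well; serially diluted compounds added next day and exposed for 144 h. Cellular ATP read by CellTiter-Lumi luminescence; IC50 for growth inhibition calculated.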

[3] = HCC1954 cells, 144 h, CellTiter-Lumi, numeric values, read-out: Inhibitory activity against HCC1954 cells (IC50)
[4] = numeric values, read-out: Inhibitory activity against MCF-7 cells (IC50)
[5] = HCC1954 cells, 144 h, CellTiter-Lumi, class symbols, read-out: Inhibitory activity against HCC1954 cells (IC50), class symbols
[6] = class symbols, read-out: Inhibitory activity against MCF-7 cells (IC50), class symbols

pIC50 [1, 3] | pIC50 [2, 4] | pIC50 [1, 5] | pIC50 [2, 6] | Structure (SMILES) | other results
7.09 | 7.80 | – | – | C=CC(=O)N1CC(N2CCC(CN3CCN(c4ccc5c(c4)-c4nc(N6C(=O)OC[C@H]6C(F)F)cn4CCO5)CC3)CC2)C1 [Compound 17] | pIC50 (PI3Kβ): 6.50; pIC50 (PI3Kδ): 7.04; pIC50 (PI3Kγ): 6.50; pIC50 (PI3Kα): 7.96
7.19 | 7.59 | – | – | C=CC(=O)Nc1ccc(N2CC(CN3CCN(c4ccc5c(c4)-c4nc(N6C(=O)OC[C@H]6C(F)F)cn4CCO5)CC3)C2)cc1 [Compound 4] | pIC50 (PI3Kβ): 6.50; pIC50 (PI3Kδ): 7.37; pIC50 (PI3Kγ): 7.01; pIC50 (PI3Kα): 8.13
7.59 | 8.60 | – | – | CN(C)C/C=C/C(=O)Nc1ccc(N2CC(N3CCN(c4ccc5c(c4)-c4nc(N6C(=O)OC[C@H]6C(F)F)cn4CCO5)CC3)C2)cc1 [Compound 96] | pIC50 (PI3Kβ): 5.50; pIC50 (PI3Kδ): 6.32; pIC50 (PI3Kγ): 6.65; pIC50 (PI3Kα): 8.88
6.99 | 7.74 | – | – | C=CC(=O)Nc1ccc(CC(=O)N2CCN(c3ccc4c(c3)-c3nc(N5C(=O)OC[C@H]5C(F)F)cn3CCO4)CC2)cc1 [Compound 1] | pIC50 (PI3Kβ): 6.50; pIC50 (PI3Kδ): > 8.10; pIC50 (PI3Kγ): 7.68; pIC50 (PI3Kα): 8.27
7.01 | 7.55 | – | – | C=CC(=O)N1CC[C@@H](C(=O)NCC(=O)N2CCN(c3ccc4c(c3)-c3nc(N5C(=O)OC[C@H]5C(F)F)cn3CCO4)CC2)C1 [Compound 2] | pIC50 (PI3Kβ): 6.29; pIC50 (PI3Kδ): 7.70; pIC50 (PI3Kγ): 7.36; pIC50 (PI3Kα): 8.14
7.17 | 7.42 | – | – | CN(C1COC1)C(C)(C)/C=C(\C#N)C(=O)Nc1ccc(N2CC(N3CCN(c4ccc5c(c4)-c4nc(N6C(=O)OC[C@H]6C(F)F)cn4CCO5)CC3)C2)cc1 [Compound 95] | pIC50 (PI3Kβ): 5.96; pIC50 (PI3Kδ): 6.99; pIC50 (PI3Kγ): 7.38; pIC50 (PI3Kα): 9.80
6.17 | 7.46 | – | – | C=CC(=O)N1CCC(N2CC(CN3CCN(c4ccc5c(c4)-c4nc(N6C(=O)OC[C@H]6C(F)F)cn4CCO5)CC3)C2)CC1 [Compound 5] | pIC50 (PI3Kβ): 6.50; pIC50 (PI3Kδ): 6.93; pIC50 (PI3Kγ): 5.92; pIC50 (PI3Kα): 7.30
8.05 | 9.44 | – | – | C=CC(=O)Nc1ccc(N2CC(N3CCN(c4ccc5c(c4)-c4nc(N6C(=O)OC[C@H]6C(F)F)cn4CCO5)CC3)C2)cc1 [Compound 27] | pIC50 (PI3Kβ): 5.53; pIC50 (PI3Kδ): 7.12; pIC50 (PI3Kγ): 7.59; pIC50 (PI3Kα): 9.68
– | – | – | – | C=CC(=O)Nc1ccc(N2CC[C@H](N3CCN(c4ccc5c(c4)-c4nc(N6C(=O)OC[C@H]6C(F)F)cn4CCO5)CC3)C2)cc1 (single isomer, unassigned) [Compound 29] | pIC50 (PI3Kβ): 5.90; pIC50 (PI3Kδ): 7.31; pIC50 (PI3Kγ): 7.42; pIC50 (PI3Kα): 8.93
– | – | > 7.30 | > 7.30 | CC(C)(C=C(C#N)C(=O)Nc1ccc(N2CC(N3CCN(c4ccc5c(c4)-c4nc(N6C(=O)OC[C@H]6C(F)F)cn4CCO5)CC3)C2)cc1)NS(C)(=O)=O [Compound 327] | –
7.55 | 8.74 | – | – | C=CC(=O)N1CCCc2cc(N3CC(N4CCN(c5ccc6c(c5)-c5nc(N7C(=O)OC[C@H]7C(F)F)cn5CCO6)CC4)C3)ccc21 [Compound 159] | –
– | – | > 7.30 | > 7.30 | CNC(C)(C)C=C(C#N)C(=O)Nc1ccc(N2CC(N3CCN(c4ccc5c(c4)-c4nc(N6C(=O)OC[C@H]6C(F)F)cn4CCO5)CC3)C2)nc1 [Compound 243] | –
9.22 | 10.00 | – | – | CNC(C)(C)C=C(C#N)C(=O)Nc1ccc(N2CC(N3CCN(c4ccc5c(c4)-c4nc(N6C(=O)OC[C@H]6C(F)F)cn4CCO5)CC3)C2)cc1 [Compound 145] | –
7.64 | 8.70 | – | – | C=CC(=O)Nc1ccc(N2CC(N3CC=C(c4ccc5c(c4)-c4nc(N6C(=O)OC[C@H]6C(F)F)cn4CCO5)CC3)C2)cc1 [Compound 103] | –
– | – | > 7.30 | > 7.30 | CN(C1COC1)C(C)(C)C=C(C#N)C(=O)Nc1ccc(N2CC(N3CCN(c4ccc5c(c4)-c4nc(N6C(=O)OC[C@H]6C(F)F)cn4CCO5)CC3)C2)c(F)c1 [Compound 220] | –
7.35 | 8.48 | – | – | CC#CC(=O)Nc1ccc(N2CC(N3CCN(c4ccc5c(c4)-c4nc(N6C(=O)OC[C@H]6C(F)F)cn4CCO5)CC3)C2)cc1 [Compound 132] | –
– | – | > 7.30 | > 7.30 | C=CC(=O)Nc1ccc(N2CC(N3CCN(c4ccc5c(c4)-c4nc(-c6nc(C)nn6C(C)C)cn4CCO5)CC3)C2)nc1 [Compound 379] | –
7.36 | 8.29 | – | – | C=CC(=O)N1CCc2sc(N3CC(N4CCN(c5ccc6c(c5)-c5nc(N7C(=O)OC[C@H]7C(F)F)cn5CCO6)CC4)C3)nc2C1 [Compound 155] | –
7.20 | 8.15 | – | – | C=CC(=O)Nc1ccc(CCN2CCN(c3ccc4c(c3)-c3nc(N5C(=O)OC[C@H]5C(F)F)cn3CCO4)CC2)cc1 [Compound 16] | –
– | – | > 7.30 | > 7.30 | CCC(C=C(C#N)C(=O)Nc1ccc(N2CC(N3CCN(c4ccc5c(c4)-c4nc(N6C(=O)OC[C@H]6C(F)F)cn4CCO5)CC3)C2)cc1)(CC)NC1COC1 [Compound 387] | –
8.47 | 9.40 | – | – | C=CC(=O)Nc1ncc(N2CC(N3CCN(c4ccc5c(c4)-c4nc(N6C(=O)OC[C@H]6C(F)F)cn4CCO5)CC3)C2)cn1 [Compound 162] | –
– | – | > 7.30 | > 7.30 | COC(=O)N1CCN(C(C)(C)C=C(C#N)C(=O)Nc2ccc(N3CC(N4CCN(c5ccc6c(c5)-c5nc(N7C(=O)OC[C@H]7C(F)F)cn5CCO6)CC4)C3)cc2)CC1 [Compound 311] | –
– | – | > 7.30 | > 7.30 | C=CC(=O)Nc1ccc(N2CC(N3CCN(c4ccc5c(c4)-c4nc(-c6nc(C)nn6C(C)C)cn4CCO5)CC3)C2)cc1Cl [Compound 377] | –
6.94 | 7.80 | – | – | CC#CC(=O)Nc1ccc(N2CC(N3CCN(c4ccc5c(c4)-c4nc(N6C(=O)OC[C@H]6C(F)F)cn4CCO5)CC3)C2)c(F)c1 [Compound 149] | –
8.57 | 9.70 | – | – | C=CC(=O)N1CCc2cc(N3CC(N4CCN(c5ccc6c(c5)-c5nc(N7C(=O)OC[C@H]7C(F)F)cn5CCO6)CC4)C3)ccc21 [Compound 134] | –
– | – | > 7.30 | > 7.30 | CC(C)(C=C(C#N)C(=O)Nc1ncc(N2CC(N3CCN(c4ccc5c(c4)-c4nc(N6C(=O)OC[C@H]6C(F)F)cn4CCO5)CC3)C2)cn1)NC1COC1 [Compound 293] | –
– | – | > 7.30 | > 7.30 | COCCNC(C)(C)C=C(C#N)C(=O)Nc1ccc(N2CC(N3CCN(c4ccc5c(c4)-c4nc(N6C(=O)OC[C@H]6C(F)F)cn4CCO5)CC3)C2)c(F)c1 [Compound 232] | –
– | – | > 7.30 | > 7.30 | CN1CCN(C(C)(C)C=C(C#N)C(=O)Nc2ccc(N3CC(N4CCN(c5ccc6c(c5)-c5nc(N7C(=O)OC[C@H]7C(F)F)cn5CCO6)CC4)C3)cc2)CC1 [Compound 307] | –
– | – | > 7.30 | > 7.30 | COC(C)(C)C=C(C#N)C(=O)Nc1ccc(N2CC(N3CCN(c4ccc5c(c4)-c4nc(N6C(=O)OC[C@H]6C(F)F)cn4CCO5)CC3)C2)c(F)c1 [Compound 231] | –
– | – | > 7.30 | > 7.30 | CCC(N)(C=C(C#N)C(=O)Nc1ccc(N2CC(N3CCN(c4ccc5c(c4)-c4nc(N6C(=O)OC[C@H]6C(F)F)cn4CCO5)CC3)C2)cc1)CC [Compound 395] | –

Structure (SMILES) | pIC50 [1, 3] | pIC50 [2, 4] | pIC50 [1, 5] | pIC50 [2, 6] | other results
CCOP(=O)(OCC)OCNC(C)(C)C=C(C#N)C(=O)Nc1ccc(N2CC(N3CCN(c4ccc5c(c4)-c4nc(N6C(=O)OC[C@H]6C(F)F)cn4CCO5)CC3)C2)cc1 [Compound 331] | – | – | – | > 7.30 | pIC50 ([1]; read-out: Inhibitory activity against HCC1954 cells (IC50), class symbols): > 7.30
